Experimental data taken from the supplement of paper PMC8960247.
Counter-ions that a name gives are not always drawn. ± gives the standard error.

Key:
621-102 (TSC2-deficient) [1] = test: relative viability vs DMSO; higher = less cytotoxic; conditions: serum: 10% FBS, 72 h
621-103 (TSC2-rescued) = test: as above; conditions: serum: 10% FBS, 72 h
621-102 (TSC2-deficient) [2] = test: relative viability vs DMSO (fraction); higher = less cytotoxic; conditions: serum: 0.1% FBS, 72 h
UMB1949 (TSC2-deficient) = test: as above; conditions: serum: 0.1% FBS, 72 h;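 note: renal angiomyolipoma cell lines screened in 384-well plates, viability normalized per plate to DMSO-treated cells, each plate carrying 50 nM rapamycin and 1 µM staurosporine controls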

Compound	relative viability (621-102 (TSC2-deficient) [1]; 0.0001 µM) [%]	relative viability (621-102 (TSC2-deficient) [1]; 0.001 µM) [%]	relative viability (621-102 (TSC2-deficient) [1]; 0.01 µM) [%]	relative viability (621-102 (TSC2-deficient) [1]; 0.1 µM) [%]	relative viability (621-102 (TSC2-deficient) [1]; 1 µM) [%]	relative viability (621-102 (TSC2-deficient) [1]; 10 µM) [%]	relative viability (621-103 (TSC2-rescued); 0.0001 µM) [%]	relative viability (621-103 (TSC2-rescued); 0.001 µM) [%]	relative viability (621-103 (TSC2-rescued); 0.01 µM) [%]	relative viability (621-103 (TSC2-rescued); 0.1 µM) [%]	relative viability (621-103 (TSC2-rescued); 1 µM) [%]	relative viability (621-103 (TSC2-rescued); 10 µM) [%]	relative viability (621-102 (TSC2-deficient) [2]; 0.0128 nM)	relative viability (621-102 (TSC2-deficient) [2]; 0.064 nM)	relative viability (621-102 (TSC2-deficient) [2]; 0.32 nM)	relative viability (621-102 (TSC2-deficient) [2]; 1.6 nM)	relative viability (621-102 (TSC2-deficient) [2]; 8 nM)	relative viability (621-102 (TSC2-deficient) [2]; 40 nM)	relative viability (621-102 (TSC2-deficient) [2]; 200 nM)	relative viability (621-102 (TSC2-deficient) [2]; 1000 nM)	relative viability (621-102 (TSC2-deficient) [2]; 5000 nM)	relative viability (UMB1949 (TSC2-deficient); 0.0128 nM)	relative viability (UMB1949 (TSC2-deficient); 0.064 nM)	relative viability (UMB1949 (TSC2-deficient); 0.32 nM)	relative viability (UMB1949 (TSC2-deficient); 1.6 nM)	relative viability (UMB1949 (TSC2-deficient); 8 nM)	relative viability (UMB1949 (TSC2-deficient); 40 nM)	relative viability (UMB1949 (TSC2-deficient); 200 nM)	relative viability (UMB1949 (TSC2-deficient); 1000 nM)	relative viability (UMB1949 (TSC2-deficient); 5000 nM)
CC[C@@]1(O)C(=O)OCc2c1cc1n(c2=O)Cc2cc3c(CN(C)C)c(O)ccc3nc2-1 [Topotecan Hydrochloride]	105 ± 5.7	110 ± 4.5	103 ± 3.6	80.067 ± 0.0095	30.3 ± 2.4	12.7 ± 0.7	106 ± 1.4	110.5 ± 0.33	102 ± 1.7	80.31 ± 0.015	26.9 ± 0.65	7.57 ± 0.098	1.03	0.984	1.06	0.956	0.888	0.268	0.0393	0.00545	0.000822	1.08	1.08	1.03	0.883	0.692	0.00466	0.00116	0.000564	0.0011
Cc1cc(Nc2cc(N3CCN(C)CC3)nc(Sc3ccc(NC(=O)C4CC4)cc3)n2)n[nH]1 [VX-680 (MK-0457)]	101 ± 4.7	90.4 ± 2.4	98.8 ± 1.7	81.4 ± 0.96	76 ± 2.1	47.8 ± 0.98	99.1 ± 1.1	103 ± 1.9	100 ± 1.9	94.8 ± 6.2	78.2 ± 2	20.4 ± 0.69	1.08	1	0.776	0.176	0.0382	0.0452	0.0422	0.0108	0.00299	0.947	0.818	0.872	0.0803	0.0315	0.0297	0.0316	0.0244	0.0016
c1cncc(CN2CCC(n3ncc4c(N5CCOCC5)nc(-c5ccc6[nH]ccc6c5)nc43)CC2)c1 [WAY-600]	89.809 ± 0.075	104 ± 2.2	99.7 ± 2.1	100 ± 1.8	82.5 ± 1	2.21 ± 0.054	99.7 ± 2.6	97.8 ± 4.8	103 ± 3.9	98.1 ± 1.8	54.5 ± 2.2	7.78 ± 0.25	1.07	1.25	1.04	1.18	1.21	1.19	0.798	0.345	0.00768	0.882	0.972	1.04	0.972	1.02	0.933	0.892	0.354	0.00636
CCC[C@H](NC(=O)/C(C#N)=C/c1cccc(Br)n1)c1ccccc1 [WP1130]	104 ± 6	98.3 ± 8.2	99 ± 1.9	100 ± 3.1	42.6 ± 3.9	12.9 ± 0.62	99.84 ± 0.79	111 ± 2.8	109 ± 2.5	105 ± 1.6	65.6 ± 11	11.4 ± 1.6	1.37	1.16	1.59	1.27	1.4	1.62	1.11	0.0118	0.0115	1.14	0.962	1.13	1.04	1.02	1.14	0.0225	0.00218	0.00472
COCC[n+]1c2c(n(Cc3cnccn3)c1C)C(=O)c1ccccc1C2=O [YM155]	119 ± 4.4	123 ± 2.9	85.19 ± 0.73	14.7 ± 0.34	2.3 ± 0.11	1.07 ± 0.06	103 ± 1.1	97.14 ± 0.26	6.98 ± 0.72	3.13 ± 0.25	1.38 ± 0.11	1.32 ± 0.092	1.26	1.18	1.05	1.14	1.01	0.797	0.0467	0.0022	0.000631	0.913	0.906	0.926	0.0628	0.00285	0.00186	0.00176	0.000862	0.000862
